A short description of data set [1]: Parallel autoradiography of liver and urogenital organs to test for regurgitation or escape into the blood stream.
A short description of data set [2]: Autoradiography of the prostate after transurethral catheter injection of tritium labeled agent.
The test system of another data set is BPH. The note with it: only after 6 months of oral treatment; cited from earlier work.
Setting [3] is: 6 hours after transurethral injection of 150 uCi 3H-flutamide.
The mark [4] stands for this setting: 24 hours after transurethral injection of 150 uCi 3H-flutamide.
Where [5] appears, read: 48 hours after transurethral injection of 150 uCi 3H-flutamide.

As for “3H-flutamide [tritium labeled flutamide]”, the “autoradiographic labeling of seminal vesicle, seminal duct and testicular samples” value in data set [1] (all time points (1, 6, 12, 24, 48 hours)) was “remained all negative”. In addition, the “autoradiographic grains in the epididymis (regurgitation of the label)” value in data set [1] (epididymis, 6 hours after transurethral injection of 150 uCi) is reported as “No grains are seen in the epididymis”. Moreover, the “autoradiographic grains in the liver (escape into systemic circulation)” value in data set [1] (liver, 48 hours after transurethral injection of 150 uCi) was “No grains are seen in the liver”. Further, the “diffuse (non-nuclear, including stroma) activity in prostate” value in data set [2] (1 hour after transurethral injection of 150 uCi 3H-flutamide) was “Strong, diffuse activity scattered over the whole prostate”. Further, in data set [2] (setting [3]), the “free (extra-nuclear) activity in prostate” value was “periphery of the gland. Practically no free (extra-nuclear)” and the “glandular nuclear activity in prostate” value is reported as “Strong, selective glandular (but not stromal or muscular)”. Further, in data set [2] (12 hours after transurethral injection of 150 uCi 3H-flutamide), the “glandular nuclear activity in prostate” value is “Strong, selective glandular (but not stromal or muscular)”. Besides, in data set [2] (setting [4]), the “nuclear binding in prostate” value is given as “Strong nuclear binding” and the “unbound activity in prostate” value was “minimal unbound activity scattered”. In data set [2] (setting [5]), the “extra-nuclear labeling in prostate” value is “covers the whole prostate, minimal scattered extra-nuclear” and the “glandular nuclear activity in prostate” value was “Still strong, although somewhat less activity over the”.

With `CC(C)(C)NC(=O)[C@H]1CC[C@H]2[C@@H]3CC[C@H]4NC(=O)C=C[C@]4(C)[C@H]3CC[C@]12C` [finasteride], the “alleviation of BPH complaints, share of cases” value with BPH is reported as “about half of the cases”.
